pIC50: −log10 of the molar value.
Biological target: phosphodiesterase IX (Homo sapiens (Human), UniProt O76083)
Experiment: Inhibition activity to the phosphodiesterase IX
Format: biochemical
Conditions: concentration of the inhibitor when the inhibition rate reaches 50%
Protocol: Inhibition activities of all the N-substituted pyrazolo [3,4-d] pyrimidine ketone compounds according to the present invention to the phosphodiesterase IX are tested.

Sequence of phosphodiesterase IX (O76083 whole entry): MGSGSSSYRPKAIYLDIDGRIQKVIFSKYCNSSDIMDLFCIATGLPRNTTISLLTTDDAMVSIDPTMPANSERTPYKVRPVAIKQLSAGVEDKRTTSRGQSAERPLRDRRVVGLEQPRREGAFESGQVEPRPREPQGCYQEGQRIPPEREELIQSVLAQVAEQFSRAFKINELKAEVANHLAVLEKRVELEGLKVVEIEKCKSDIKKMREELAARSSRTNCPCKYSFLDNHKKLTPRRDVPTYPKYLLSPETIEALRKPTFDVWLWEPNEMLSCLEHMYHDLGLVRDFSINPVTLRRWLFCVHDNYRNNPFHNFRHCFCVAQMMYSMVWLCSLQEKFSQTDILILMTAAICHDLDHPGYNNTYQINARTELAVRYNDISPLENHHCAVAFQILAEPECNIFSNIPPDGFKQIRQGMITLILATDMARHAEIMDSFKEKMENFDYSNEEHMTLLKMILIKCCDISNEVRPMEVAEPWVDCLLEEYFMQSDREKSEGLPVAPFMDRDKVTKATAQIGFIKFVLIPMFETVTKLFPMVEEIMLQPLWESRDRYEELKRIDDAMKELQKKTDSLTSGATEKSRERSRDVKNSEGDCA

A pIC50 of 8.22 was found for `COc1ccc(NC(=O)C(C)Nc2nc3c(cnn3-c3ccccc3Cl)c(=O)[nH]2)cc1` (stereo not shown) [WYQ-94-D] in this work.
